{"source": "patent US9987208B2", "about": "“Elastin synthesis/regeneration promoting agent” (NISHIZAKI BIOINFORMATION RESEARCH INSTITUTE, priority 2013, dated 2018)", "key": {"[1]": {"system": "normal human skin fibroblast", "experiment": "Immunocytological measurement of elastin fiber in fibroblasts with or without SNP", "type": "cell-based", "conditions": "DCP-LA 100 nM, FIG. 1", "protocol": "(§1) Normal human fibroblast was purchased from Lonza (Verviers, Belgium). The cells were cultured in FGM™-2 BulletKit™ (Lonza) at 5% CO2 and 95% air under wet atmosphere at 37° C.\nIn the presence or absence of DCP-LA (100 nM), normal human skin fibroblasts were treated with sodium nitroprusside (SNP) (1 mM). Then, the cells were fixed with methanol at −20° C. for 30 min, and blocked with 2% (w/v) bovine serum albumin-containing phosphate buffered saline (PBS) at room temperature. The cells were reacted with an anti-elastin antibody (1:100) (Millipore, Temecula, Calif., USA) at 4° C. overnight, and then reacted with an Alexa488-conjugated goat anti-mouse IgG antibody (Molecular Probes, Eugene, Oreg., USA) at room temperature for 1 hr. After staining with 4′,6-diamidino-2-phenylindole (DAPI), the fluorescence-labeled cells were visualized with a confocal scanning laser microscope (Axiovert/LSM510; Carl Zeiss, Oberkochen, Germany). The fluorescence signal intensity of the elastin fiber was analyzed using ImageJ (Bethesda, Md., USA). The intensity of the elastin fiber was standardized by the intensity of DAPI."}, "HR-1 hairless mice": {"system": "HR-1 hairless mice", "experiment": "Immunohistological measurement of elastin fiber in UV-irradiated mouse back skin", "type": "in vivo", "conditions": "DCP-LA 1 mg/ml in PEG applied to back skin once per day, UV for 2 weeks, FIG. 2", "protocol": "Male HR-1 hairless mice (7- to 8-week-old) were purchased from Japan SLC. Inc. (Shizuoka, Japan). The mice were reared in a chamber at controlled temperature in a cycle of 12 hr light conditions/12 hr dark conditions.\nThe mice were transferred to a special cage provided with a UV light on the roof and reared therein. UV light was continuously irradiated on the back skin at a distance of 12 cm for the whole 2 weeks.\nDuring UV irradiation, DCP-LA (1 mg/ml) diluted with polyethylene glycol (PEG) was applied to the skin of the back of the mouse once per day.\nThe mice were sacrificed, a skin block was mounted on OTC (optimal cutting temperature compound), and cut out in about 10 μm thickness by a cryostat. A section was blocked with 5% (v/v) goat serum in PBS-Triton X-100 for 1 hr. Then, the section was incubated with an anti-elastin mouse monoclonal antibody (1:2000) (Millipore), which is the primary antibody, at 4° C. overnight, and then incubated with a goat anti-mouse IgG antibody (1:500) (Invitrogen, Carlsbad, Calif., USA) which is the secondary antibody, for 1 hr at room temperature. After staining with DAPI, the section was visualized with a confocal scanning laser microscope (Axiovert/LSM510; Carl Zeiss). The fluorescence signal intensity of the elastin fiber was quantified by NIH image. The intensity of the elastin fiber was standardized by the intensity of DAPI."}, "fibrin-5": {"system": "fibrin-5", "experiment": "Western blotting of fibrin-5 secreted into culture medium", "type": "cell-based, human", "conditions": "DCP-LA 100 nM, 0-24 hr, FIG. 3", "protocol": "as §1\nThe cultured normal human skin fibroblast was treated with DCP-LA (100 nM) for 0-24 hr, and the culture medium was recovered. After precipitation with 5% (w/v) trichloroacetic acid, protein was separated by sodium dodecyl sulfate-polyacrylamide electrophoresis (SDS-PAGE) using TGX gel (BioRad, Hercules, Calif., USA) and transferred on a polyvinylidene difluoride membrane. The blotting membrane was blocked with TBS-T [150 mM NaCl, 0.1% (v/v) Tween20 and 20 mM Tris, pH 7.5] containing 5% (w/v) BSA, and reacted with anti-fibrin-5 antibody (Sigma, St Louis, Mo., USA). After washing, the membrane was reacted with horseradish peroxidase-conjugated goat anti-rabbit IgG antibody. The immune reactivity was detected by ECL kit (GE Healthcare, Piscataway, N.J., USA), and visualized using a chemiluminescence detection system (GE Healthcare). The protein concentration of each sample was measured using a BCA protein assay kit (Thermo Fisher Scientific, Waltham, Mass., USA)."}, "PKC-ε": {"biological_target": "T1, PKC-ε (Homo sapiens, UniProt Q02156)", "T1 sequence (Q02156 1-737)": "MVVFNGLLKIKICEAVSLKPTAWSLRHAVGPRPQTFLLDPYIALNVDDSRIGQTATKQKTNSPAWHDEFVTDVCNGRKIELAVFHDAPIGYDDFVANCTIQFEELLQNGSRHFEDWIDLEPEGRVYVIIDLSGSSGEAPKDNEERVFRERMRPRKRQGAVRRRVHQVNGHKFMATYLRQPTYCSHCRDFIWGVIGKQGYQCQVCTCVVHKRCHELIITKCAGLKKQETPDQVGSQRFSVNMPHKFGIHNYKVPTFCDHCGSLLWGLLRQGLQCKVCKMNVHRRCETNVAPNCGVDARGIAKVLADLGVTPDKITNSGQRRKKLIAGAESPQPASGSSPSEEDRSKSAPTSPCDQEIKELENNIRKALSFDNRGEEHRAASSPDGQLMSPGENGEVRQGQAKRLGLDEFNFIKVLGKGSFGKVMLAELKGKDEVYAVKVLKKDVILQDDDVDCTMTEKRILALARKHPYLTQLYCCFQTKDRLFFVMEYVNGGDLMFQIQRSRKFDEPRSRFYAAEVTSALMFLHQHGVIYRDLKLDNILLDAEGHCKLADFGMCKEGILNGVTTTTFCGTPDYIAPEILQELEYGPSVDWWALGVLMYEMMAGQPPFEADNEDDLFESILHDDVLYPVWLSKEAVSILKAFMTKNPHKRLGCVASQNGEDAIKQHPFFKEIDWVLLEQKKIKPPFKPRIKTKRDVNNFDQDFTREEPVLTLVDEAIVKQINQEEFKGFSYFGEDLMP", "conditions": "cited from earlier work"}, "[2]": {"system": "senescence accelerated mouse", "conditions": "cited from earlier work"}, "hippocampus nerve cells": {"system": "hippocampus nerve cells", "conditions": "cited from earlier work"}, "[3]": {"system": "amyloid β peptide or scopolamine-treated rat", "conditions": "cited from earlier work"}, "[4]": {"biological_target": "α7 nicotinic acetylcholine receptor (Homo sapiens, UniProt P36544)", "sequence (P36544 23-502)": "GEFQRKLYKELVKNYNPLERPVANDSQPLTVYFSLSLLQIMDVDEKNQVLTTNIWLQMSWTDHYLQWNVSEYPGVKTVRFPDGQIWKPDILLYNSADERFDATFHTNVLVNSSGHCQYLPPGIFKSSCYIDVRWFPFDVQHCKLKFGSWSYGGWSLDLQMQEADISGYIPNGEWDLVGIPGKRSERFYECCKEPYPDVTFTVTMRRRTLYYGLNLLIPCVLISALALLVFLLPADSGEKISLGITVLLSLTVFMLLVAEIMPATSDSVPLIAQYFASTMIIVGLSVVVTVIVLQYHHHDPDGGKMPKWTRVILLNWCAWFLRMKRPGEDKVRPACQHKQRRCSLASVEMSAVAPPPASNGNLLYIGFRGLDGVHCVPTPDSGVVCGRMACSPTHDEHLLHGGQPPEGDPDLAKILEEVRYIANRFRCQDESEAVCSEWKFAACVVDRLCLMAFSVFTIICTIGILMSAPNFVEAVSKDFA", "conditions": "α7 nicotinic acetylcholine receptor expressed in glutamatergic presynaptic cell as target; cited from earlier work"}, "nerve cell": {"system": "nerve cell", "conditions": "cited from earlier work"}}}
{"smiles": "CCCCCC1CC1CC1CC1CCCCCCCC(=O)O", "note": "(stereo not shown) [DCP-LA, 8-[2-(2-Pentyl-cyclopropylmethyl)-cyclopropyl]-octanoic acid]", "values": [{"measurement": "regeneration against elastin degeneration induced by NO stress (relative density of elastin fiber relative to DAPI)", "setting": "[1]; SNP 1 mM for 12 hr", "value": "promote regeneration against elastin degeneration induced by NO stress"}, {"measurement": "elastin synthesis (relative density of elastin fiber relative to the DAPI density)", "setting": "[1]; untreated with SNP", "value": "promote elastin synthesis"}, {"measurement": "protection against elastin disorder caused by UV irradiation (relative density of elastin fiber relative to DAPI)", "setting": "HR-1 hairless mice", "value": "protecting action against elastin disorder (elastin deterioration) caused by UV irradiation"}, {"measurement": "secretion amount of fibrin-5", "setting": "fibrin-5", "value": "increased the secretion amount of fibrin-5"}, {"measurement": "PKC-ε activation", "setting": "PKC-ε", "value": "activates PKC-ε selectively and directly"}, {"measurement": "cognitive dysfunction", "setting": "[2]", "value": "improves cognitive dysfunction of senescence accelerated mouse"}, {"measurement": "release of γ aminobutyric acid", "setting": "hippocampus nerve cells", "value": "increases release of γ aminobutyric acid from hippocampus nerve cells"}, {"measurement": "cognitive dysfunction", "setting": "[3]", "value": "improves cognitive dysfunction of amyloid β peptide or scopolamine-treated rat"}, {"measurement": "hippocampal synaptic transmission", "setting": "[4]", "value": "promotes hippocampal synaptic transmission"}, {"measurement": "nerve cell death induced by oxidative stress", "setting": "nerve cell", "value": "suppress nerve cell death induced by oxidative stress"}]}
